Laboratory results: ChEMBL document CHEMBL1201862, “PubChem BioAssay data set” (2004)
Active and inactive are the calls of the source.

Key:
[1] = decrease of insulin promoter-GFP reporter – imaging, high-content screening, mouse beta cells (AID 1628); assay type: functional; conditions: MIN6
[2] = MIN6 cell viability loss – mouse insulinoma, cytotoxicity control, dose response (AID 2122); assay type: functional;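 further: confirmatory high-throughput counterscreen run to flag cytotoxic compounds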
[3] = viability of uninfected HEp-2 cells – cell-based, HTS, cytotoxicity control for RSV inhibitor project, dose response (AID 2410); assay type: functional; conditions: human respiratory syncytial virus
[4] = Trypanosoma cruzi growth suppression in host cells – NIH3T3 host cells, beta-gal luminescence, confirmation (AID 2044); assay type: functional, cell-based;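 further: intracellular parasites grown in NIH/3T3 mouse fibroblasts as host cells; luminescent beta-galactosidase reporter signal from transgenic T. cruzi replicating inside host cells; inhibitors lower the luminescence signal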
[5] = NIH3T3 cell viability loss – ATP luminescence, mouse fibroblasts, counter-screen, dose response (AID 2010); assay type: functional, cell-based;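 further: cells exposed to compound for about 90 hours before reading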

Row | SMILES | IC50 [1] | IC50 [2] | CC50 [3] | EC50 [4] | EC50 [5]
1 | N=c1ccn(Cc2cccc(Cl)c2)cc1 | 3.15 µM (active) | 3.41 µM (active) | – | – | –
2 | COc1cc(-c2nn3c(-c4ccccc4)nnc3s2)cc(OC)c1OC | 3.22 µM (active) | > 16 µM (inactive) | – | – | –
3 | Cc1ccc(-c2noc(CCC(=O)NCCCN3CCN(c4ccc(F)cc4)CC3)n2)cc1 | 3.28 µM (active) | 3.21 µM (active) | – | – | –
4 | O=C(NCc1cn(-c2ccccc2)nc1-c1ccc(F)cc1)c1cccc([N+](=O)[O-])c1 | 2.91 µM (active) | 4.31 µM (active) | 28.1 µM (active) | 805 nM (active) | > 60 µM (not active)
